Results reported in patent publication US20070021397A1, “Neurocyte protective agent” (priority 2003, published 2007).

Experiments:
[1] = tested on: rat primary culture neurons; experiment: OGD test, microscopic observation of cell morphology; details: added before OGD treatment; FIG. 2
[2] = tested on: rat primary culture cerebral cortex neurons; experiment: OGD (oxygen glucose deprivation) test, LDH release; type: cell-based; details: added 12 h before OGD; 0.1, 1.0, 10 μM (galantamine 1.0, 10, 100 μM); FIG. 3
Description: After culturing for 7 days or more, cells were subjected to OGD treatment. […] As an indicator for neurocyte protection effect, ratio of LDH release inhibition was used. […] Therefore, when cells are injured by OGD, LDH flows out from inside of the cells into extracellular solution. In this solution, LDH is present depending on the degree of injury of the cells (cell death). The amount of LDH present in the solution can be determined by adding pyruvic acid and NADH to the solution and measuring the decreasing ratio of NADH with an absorption spectrometer.
Subsequently, rat primary culture neurons were subjected to OGD treatment in the same manner as in the previous test.
Then, their effects on LDH release induced by OGD treatment were tested.

[3] = tested on: cultured rat septal area neurons; experiment: Aβ(1-40) toxicity, LDH leakage from cultured septal area neurons; type: cell-based; details: siRNA 1 μmol/L added 24 h before and immediately before 15 μmol/L Aβ(1-40), 48 h; FIG. 12
Protocol: Septal area neurons were prepared from embryos (18-day-old embryos) of Wistar rats (Charles River Japan). The septal region (including septal area and basal forebrain) was cut out from embryonic brain and incubated in Ca^2+/Mg^2+-free Hanks' balanced salt solution containing 0.25% trypsin and 0.2 mg/ml DNase I at 37° C. for 15 minutes. […] Cells were plated on 96-well poly-D-lysine-coated culture plates at a concentration of 1.2×10^5 cells/well. The plated cells were cultured in a CO2 incubator (5% CO2, 37° C.). After one day, ⅔ of the medium was exchanged for the above-described DMEM containing 5% fetal calf serum. After three days, ⅔ of the medium was exchanged again for the above-described DMEM containing 5% fetal calf serum. After 6 days, the entire medium was exchanged for the above-described DMEM (this time, Gln is not contained) not containing serum.
As an indicator for cytotoxicity, LDH (lactate dehydrogenase) was measured. […] Forty-eight hours after the addition of Aβ(1-40), lactate dehydrogenase (LDH) activity in the medium was measured. At the same time, cells were solubilized with phosphate buffer (pH 7.4) containing 0.5% Triton X-100, followed by measurement of LDH in cells. […] The data were analyzed by analysis techniques of ANOVA and Welch's test.
LDH (lactate dehydrogenase) was measured as an indicator for cytotoxicity. […] The data were analyzed by ANOVA and Welch's test.

Compound: COc1cc2c(cc1OC)C(=O)C(CC1CCN(Cc3ccccc3)CC1)C2.Cl (stereo not shown) [Donepezil, 1-benzyl-4-[(5,6-dimethoxy-1-indanone)-2-yl]methylpiperidine]
- protection of neurons by cell morphology [1]: neurons were protected by the addition of donepezil before OGD treatment

Compound: CCN(C)C(=O)Oc1cccc([C@H](C)N(C)C)c1 [Rivastigmine]
- inhibition of LDH release (neurocyte protective effect) after OGD [2]: did not show any neurocyte protective effect

Compound: siRNA (i): double-stranded siRNA of acetylcholinesterase, SEQ ID NO: 1 and SEQ ID NO: 2 (chain 1 AAUGUCAGUGACUCUGUUUTT; chain 2 AAACAGAGUCACUGACAUUTT; chemistry not given here)
- protective effect against Aβ(1-40) toxicity (LDH) [3]: inhibit Aβ toxicity

Compound: siRNA (ii): double-stranded siRNA of acetylcholinesterase, SEQ ID NO: 3 and SEQ ID NO: 4 (chain 1 GCUGCCUCAAGAAAGUAUCTT; chain 2 GAUACUUUCUUGAGGCAGCTT; chemistry not given here)
- protective effect against Aβ(1-40) toxicity (LDH) [3]: inhibit Aβ toxicity
